Where two headings read alike, the source gives them in different places.

Series [1] can be described thus: Bioavailability study: single-dose plasma pharmacokinetics of 2 test formulations of triple combination capsules.
Text: The objectives of this study were to 1) determine and compare the rate and extent of absorption and 2) to assess the safety and tolerability of 2 test formulations of a combination product of clarithromycin, rifabutin and clofazimine (herein after “triple combination”).
This study followed a randomized, open-label, single-dose, 1-way 2-arm parallel design in 24 normal, healthy, non-smoking male and female subjects.
Subjects were admitted to the clinic the day before dosing, and remained until the 24.00 hour post-dose blood draw, at which time they were allowed to leave the clinic and after which they were required to return for subsequent blood draws.
Following an overnight fast of at least 10 hours, subjects began a high fat content meal 30 minutes prior to drug administration. Subjects consumed this meal in 30 minutes or less; however, the study drug was administered 30 minutes after the start of the meal. The FDA standard high-fat content breakfast consisted of the following: 2 eggs fried in butter, 2 strips of bacon, 2 slices of toast with butter, 4 ounces of hash brown potatoes and 8 fluid ounces (about.240 mL) of whole milk.
Following an overnight fast of at least 10 hours, and 30 minutes after the start of a high fat content meal, subjects received one of the following treatments at 0.00 hour on Day 1 of the study period according to a randomization scheme:
The medications were administered orally. The drugs were given 1 or more capsules at a time. All capsules were ingested within 1 minute.
During the study period, 19 blood samples (1×4 mL and 1×6 mL tube for each sampling time point) were collected from each subject by direct venipuncture or by Vasofix® intravenous catheter using pre-cooled, labelled blood collection tubes containing potassium ethylenediaminetetraacetic acid (EDTA) as the anticoagulant. Blood samples were collected at 0.00 (pre-dose), 0.25, 0.50, 0.75, 1.00, 1.50, 2.00, 2.50, 3.00, 4.00, 6.00, 8.00, 10.00, 12.00, 16.00, 24.00, 48.00, 60.00, and 96.00 hours post-dose. The clock times of all blood draws for plasma concentration analyses were recorded.
The 6 mL tubes were used to measure clarithromycin and 14-hydroxyclarithromycin. The 4 mL tubes were used to measure rifabutin, 25-O-desacetylrifabutin and clofazimine.
(§1) The blood samples were stored in an ice bath before centrifugation and were centrifuged as soon as possible under refrigerated conditions (at 4° C.) at 3500 rpm for 7 minutes. The collected plasma from each blood collection tube was aliquotted into pre-cooled labelled polypropylene tubes. A minimum of 1.5 mL of plasma was transferred from the 6 mL tubes into the first polypropylene tube, and all remaining plasma, if any, was transferred into a second polypropylene tube. The samples were kept in an ice bath, and flash frozen in an upright position, then stored at −70±10° C. until assayed.
as §1, with “In another procedure, the blood” for “The blood”, “of 0.8” for “of 1.5”, “the 4 mL,” for “the 6 mL”
Upon completion of the clinical portion of the study, all samples were analysed for clarithromycin and 14-hydroxyclarithromycin in the plasma samples or for rifabutin, 25-O-desacetylrifabutin and clofazimine in the plasma samples.
Clarithromycin and 14-hydroxyclarithromycin—Information about these analytes was obtained using routine methods known in the art.

A short description of series [2]: Literature Cmax of clarithromycin (Chu et al., 1993). The following applies: in vivo; clarithromycin 190 mg dose; read-out: Cmax, literature value scaled to dose of the study. On the procedure:
The results obtained from dry and PEG formulations of triple combination capsules were approximately proportional to literature findings. Chu et al. (1993) reported that the rise of clarithromycin peak concentrations occur non-linearly to dose which might explain any slight disproportionality between the literature values and those obtained from triple combination capsules dry and PEG formulations.
Clarithromycin—500 mg (four 125-mg capsules, Abbott Laboratories) every 12 hours for 5 doses.

For series [3] the following is noted: single dose of 250 mg of clarithromycin; cited from earlier work.
Series [4] is described as follows: Literature Cmax of clofazimine (Nix et al., 2004). The following applies: in vivo; clofazimine 20 mg dose; read-out: Cmax, literature value scaled to dose of the study.
For series [5] the following is noted: clofazimine 200 mg dose, fed (Nix et al., 2004); cited from earlier work.
The nature of the next series: clinical. The settings on record: human, in vivo, 90 mg. The source says:
Gatti et al. (1998) conducted a comparative study of rifabutin absorption and disposition in HIV-infected patients with or without wasting syndrome.

The conditions of series [6]: single 300 mg dose of rifabutin, fasting; 10 HIV patients without wasting syndrome (Gatti et al., 1998); cited from earlier work.
The mark [7] stands for this setting: 25-O-desacetylrifabutin, geometric mean ratio dry/PEG formulation of triple combination capsules.
Where [8] appears, read: clarithromycin, geometric mean ratio dry/PEG formulation of triple combination capsules.
Where [9] appears, read: clofazimine, geometric mean ratio dry/PEG formulation of triple combination capsules.
The mark [10] stands for this setting: rifabutin, geometric mean ratio dry/PEG formulation of triple combination capsules.

Consider “25-O-desacetylrifabutin [25-0-DESACETYLRIFABUTIN]”, for which, in series [1] (setting [7]), the “Relative bioavailability, Ratio of Means, AUC0-t” value was 73.95% and the “Relative bioavailability, Ratio of Means, Cmax” value is recorded as 73.43%. For the same compound, in series [1] (25-O-desacetylrifabutin, geometric mean ratio dry/PEG formulation, approximately 65% of subjects excluded), the “Relative bioavailability, Ratio of Means, AUC0-inf” value amounted to 86.06%.
As for `CC[C@H]1OC(=O)[C@H](C)[C@@H](O[C@H]2C[C@@](C)(OC)[C@@H](O)[C@H](C)O2)[C@H](C)[C@@H](O[C@@H]2O[C@H](C)C[C@H](N(C)C)[C@H]2O)[C@](C)(OC)C[C@@H](C)C(=O)[C@H](C)[C@@H](O)[C@]1(C)O` [CLARITHROMYCIN, clarithromycin], in series [2], the Cmax – broadly, the peak of the concentration-time curve – is 593 ng/mL. For the same compound, the Cmax in series [3] was 780 ± 250 ng/mL. In addition, in series [1] (setting [8]), the “Relative bioavailability, Ratio of Means, AUC0-inf” value was determined as 80.78%; the “Relative bioavailability, Ratio of Means, AUC0-t” value turned out to be 80.34%; the “Relative bioavailability, Ratio of Means, Cmax” value is reported as 75.03%.
In the case of `CC(C)/N=c1\cc2n(-c3ccc(Cl)cc3)c3ccccc3nc-2cc1Nc1ccc(Cl)cc1` [CLOFAZIMINE, clofazimine], the “Relative bioavailability, Ratio of Means, AUC0-t” value is reported as 102.38% in series [1] (setting [9]) and 102% in series [1] (clofazimine, geometric mean ratio dry/PEG formulation of triple combination capsules, listed as clofazimine). Also, in series [1] (setting [9]), the “Relative bioavailability, Ratio of Means, Cmax” value was 118.63%. In addition, the “Relative bioavailability, Ratio of Means, AUC0-inf” value in series [1] (clofazimine, geometric mean ratio dry/PEG formulation, approximately 50% (A) and 75% (B) of subjects excluded) stood at 120.52%. Further, the Cmax in series [4] was 23 ng/mL; in series [5], 227 ng/mL.
Consider `CO[C@H]1/C=C/O[C@@]2(C)Oc3c(C)c(O)c4c(c3C2=O)C2=NC3(CCN(CC(C)C)CC3)NC2=C(NC(=O)/C(C)=C\C=C\[C@H](C)[C@H](O)[C@@H](C)[C@@H](O)[C@@H](C)[C@H](OC(C)=O)[C@@H]1C)C4=O` [RIFABUTIN, rifabutin], for which the Cmax in “clinical” amounted to 102 ng/mL. Moreover, the “Cmax (peak concentration)” value in series [6] was 340 ± 140 ng/mL. Also, in series [1] (setting [10]), the “Relative bioavailability, Ratio of Means, AUC0-inf” value is 73.23%; the “Relative bioavailability, Ratio of Means, AUC0-t” value is reported as 77.00%; the “Relative bioavailability, Ratio of Means, Cmax” value is given as 88.74%.

Source of the values: US11090326B2, “Fixed-dose pharmaceutical composition comprising rifabutin, clarithromycin, and clofazimine” (RedHill Biopharma Ltd., priority 2008, dated 2021).
